Reference: US7566808B2, “Management of ophthalmologic disorders, including macular degeneration” (President and Fellows of Harvard College, priority 2004, dated 2009)

Tested on: bovine retinal pigment epithelial membrane system (11-cis-retinol formation)
Test: 11-cis-retinol formation in RPE membranes (IMH activity / RPE65 function)
Assay type: biochemical
Details: 60 μM, data not shown
Method: A control reaction mixture without any inhibitor was also incubated at room temperature for 15 min. At the end of the 15 min incubation, all-trans-retinol [11-12-^3H2] (0.2 μM) was added to the reaction mixtures (100 mM Tris pH 8.0, […] of RPE protein, 0.2% BSA 100 μM of DPPC, 1 mM of DTT and 0.2 μM all-trans-retinol [11-12-^3H2]) and incubated at room temperature for 30 min. At the end of this 30 minutes of incubation, an aliquot of the reactions were quenched to verify the equal addition of all-trans-retinol [11,12-^3H2] and the effect of these inhibitors on LRAT. After this the control reaction mixture was incubated with atRA (60 & 6 μM), 13cRA (60 & 6 μM) or 4-HPR (60 & 6 μM) for 15 min. Now all the reaction mixtures were incubated with 30 μM of apo-rCRALBP (100 mM Tris pH 8.0, 7.7 μg of RPE protein, 0.2% BSA 100 μm of DPPC, 1 mM of DTT 30 μM apo-rCRALBP and 0.2 μM all-trans-retinol [11-12-^3H2]) at 37° C. for 30 minutes. At the end of this incubation period the 200 μL reaction mixture was quenched by the addition of 750 μL ice cold methanol after which 100 μL of 1M sodium chloride solution was added, and 500 μl hexane (containing butylated hydroxy toluene at 1 mg/mL) was added to effect extraction of the retinoids. The retinoids were analyzed as previously described (27). The amount of 11-cis-retinol formed was used as a measurement of IMH activity. All experiments were performed in triplicate and the average values of these measurements were used for analysis.
A control reaction mixture without any inhibitor was also incubated at room temperature for 15 min. At the end of the 15 min incubation, all-trans-retinol [11-12-^3H2] (0.2 μM) was added to the reaction mixtures (100 mM Tris pH 8.0, 76.7 μg of RPE protein, 0.2% BSA 100 μM of DPPC, 1 mM of DTT and 0.2 μM all-trans-retinol [11-12-^3H2]) and incubated at room temperature for 30 min. […] The retinoids were analyzed as previously described (27). […]

## CC1=C(/C=C/C(C)=C/C=C/C(C)=C\C(=O)O)C(C)(C)CCC1 [13-cis-retinoic acid, reference compound]
  inhibition of 11-cis-retinol formation, membranes pre-incubated with vitamin A before inhibitor: not susceptible to inhibition
